In patent US20240139125A1 (INDUSTRIAL COOPERATION FOUNDATION JEONBUK NATIONAL …, priority 2020, published 2024):
“Also recorded” adds a separate entry of the source.

Experiments:
Assay type in all cases: cell-based
[1] = system: HT1080 and MDA-MB-231 cells; assay: Cell invasion assay
Procedure: FIG. 65B is an image of an invasive cell in HT1080 and MDA-MB-231 cells treated with 2.0 μM BIA. The graph on the right quantifies invading cells from BIA-treated cells normalized to control cells (n=3 independent experiments). Data were expressed as mean±SD. **p<0.01, ***p<0.001, two-tailed unpaired t-test. The scale bar represents […].
Cells were moved through the polyethylene terephthalate membrane (BD Biosciences) of the insert for 12 hours, and then fixed, crystal violet staining was performed to measure the degree of invasion.
Cell invasion experiments were performed according to the method of the Invasion Assay Kit (corning, 3458). Put a cell culture insert into the 24-well cell culture plate, DMEM medium with 10% FBS added outside the insert , and no FBS added inside the insert. 2.0 μM BIA was added to HT1080 and MDA-MB-231 and incubated at 37° C. for 12˜24 hours. Removed the medium in the 24-well culture plate and the medium inside the insert Then, a cotton swab was used to remove the remaining cells in the insert. After fixing the insert in 4% formaldehyde solution, stain the cells that penetrate the bottom of the insert with crystal violet solution, wash it with tertiary distilled water, and then at room temperature Dried and dried inserts were observed under a microscope.

[2] = biological target: T1, binding of BI-1 and mTORC2 and ribosomes (Homo sapiens, UniProt P55061); assay: PLA, immunoprecipitation and gel filtration of BI-1/mTORC2/ribosome binding
T1 construct: expressed in transfected cells
Procedure: The graph below quantifies the fine and bright spots (n=5 independent experiment). The scale bar represents 20 μm. Data were expressed as mean±SD. **p<0.01, ****p<0.0001, followed by a binary ANOVA, followed by Bonferroni's post hoc test.
FIG. 62B is the result of PLA between RICTOR and the following proteins mTOR, RPL19 and RPS 16 in HT1080 cells treated with 10 μM BIA. The scale bar represents 20 μm. The graph on the right quantifies the fine and bright points (n=5 independent experiment). Data were expressed as mean±SD. **p<0.01, ***p<0.001, ****p<0.0001, followed by a binary ANOVA followed by Bonferroni's post hoc test.
HT1080 cells knocked out of BI-1 (using 8 10 cm cell culture dishes for each sample) were temporarily transformed using HA-BI-1 (TMBIM6) plasmids. HT1080 cells knocked out of BI-1 were treated with 10 μM of 2E-1-2-Aminophenyl-3-3-nitrophenyl-2-propen-1-one (BIA). After 24 hours, CHAPS containing protease inhibitor cocktail and phosphatase inhibitor cocktail Cells were lysed in 1.0 ml of buffer (pH 7.4, 150 mM NaCl, 1 mM EDTA and 25 mM HEPES at 0.3% CHAPS). The cell lysate was filtered with a 0.45 μm syringe filter. […] 50 μL of each fraction was electrophoresis with SDS-PAGE and then detected with various antibodies. […]

[3] = system: HT1080, PANC-1, Capan-1 and MIA PaCa-2; assay: Cell viability (crystal violet), BIA versus mTOR inhibitors; details: 10 μM
[4] = system: HT1080, MCF7, MDA-MB-231 and SKBR3 cells; assay: Cell migration (Transwell, wound healing)
Procedure: Image (A) and quantification graph (B) (n=3 independent experiment).
FIG. […] The graph on the right quantifies migrated cells from BIA-treated cells normalized to control cells (n=3 independent experiments. Data were expressed in mean±SD. **p<0.01, ***p<0.001, two-tailed unpaired t-test simulation. The scale bar represents 15 μm.
It was used and checked. Cells were treated with trypsin, and serum and 2×10^4 cells were added to the upper chamber in DMEM, cells transported to the lower chamber via transwell for 12 hours were fixed and stained with crystal violet to perform migration analysis.

PANC-1 cells = assay: Cell viability (crystal violet), BIA versus mTOR inhibitors; details: 10 μM
[5] = system: HT1080 cells stably overexpressing BI-1; assay: Cell proliferation of BI-1 overexpressing cells with BIA; details: 1 day after treatment
BI-1 (TMBIM6) [6] = biological target: T2, BI-1 (TMBIM6) (Homo sapiens, UniProt P55061); assay: G-CEPIAer ER lumen calcium indicator; details: HT1080, 10 μM BIA, compared to untreated control cells
T2 construct: endogenous in cells; host or cells: HT1080 cells transfected only with the G-CEPIAer indicator plasmid
Procedure: FIG. 74B is a result of treating HT1080 cells with BIA 10 μM and observing the fluorescence intensity of G-CEPIAer designed to measure calcium concentration inside
Since BI-1 regulates mTORC2 activation through ER Ca2+ release, the above results confirmed whether BIA inhibits Ca2+ release from BI-1.
On the other hand, when BIA is treated, calcium inside ER increases because […] in ER inhibits calcium. This was expressed G-CEPIAer, which measures the calcium concentration inside ER, and metamorphed HT1080 cells using CEPIAer plasmid to create stable cells. This transfected cell can be used to detect only free calcium from ER via BI-1 (TMBIM6) based on the calcium channel-like nature of BI-1 (TMBIM6). By confirming the increase in fluorescence, it was possible to confirm the specificity of the BIA (see FIG. 74B).

SKBR3 = assay: Cell proliferation/viability with BIA, IC50 after 3 days; details: Homo sapiens, SK-BR-3, 72 h; SKBR3 cells, treatment for 3 days
BI-1 (TMBIM6) [7] = assay: TMBIM6-GCaMP3 fluorescence, calcium released through BI-1; details: HT1080 cells expressing TMBIM6-GCaMP3, BIA 10 μM, over time
[8] = system: association between RICTOR and mTOR or between RICTOR and RPL19; assay: Proximity ligation assay in PANC-1 cells; details: PLA
Source text: The graph on the right quantifies the fine, bright points (n=5 independent experiment). The scale bar represents 20 μm. Data were expressed as mean±SD. **p<0.01, Bonferroni's post hoc test after binary ANOVA.

T1 sequence (P55061 whole entry): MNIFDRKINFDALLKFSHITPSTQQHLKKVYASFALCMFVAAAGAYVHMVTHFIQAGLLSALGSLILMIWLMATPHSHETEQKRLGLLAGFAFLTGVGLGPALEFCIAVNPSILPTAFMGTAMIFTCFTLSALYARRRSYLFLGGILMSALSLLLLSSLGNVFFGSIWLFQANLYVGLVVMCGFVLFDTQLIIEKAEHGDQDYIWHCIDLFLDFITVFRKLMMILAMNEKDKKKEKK
T2 sequence (P55061 whole entry): as above

`Nc1ccccc1C(=O)/C=C/c1cccc([N+](=O)[O-])c1` [BIA, 2E-1-2-Aminophenyl-3-3-nitrophenyl-2-propen-1-one] was tested. Which cell invasion ([1]; HT1080 fibrosarcoma cells, 12 hours) did it give?
Its cell invasion is “very pronounced cell invasion inhibition”.

And the cell invasion ([1]; MDA-MB-231 and HT1080 cells, 2.0 μM BIA)?
The cell invasion was “reduced”.

What about the “protein interactions between mTORC2 and ribosomes or binding of BI-1 and mTORC2 and ribosomes” value ([2]; HT1080 cells, PLA and immunoprecipitation) of the same compound?
Its value is “inhibited”.

What about the “co-elution pattern with mTORC2 components (mTOR and RICTOR) and ribosomes (RPL19)” value ([2]; gel filtration, BI-1 overexpressed HT1080 cells, BIA for 24 hours) of the same compound?
The value was “delayed”.

And the “cell viability compared to OSI-027 and Voxtalisib and other mTOR inhibitors” value [3]?
The value was “significantly reduced”.

And the cell migration ([4]; HT1080, MCF7, MDA-MB-231 and SKBR3 cells, 2.0 μM BIA)?
Its cell migration is “reduced”.

And the cell migration ([4]; HT1080 cells, FIGS. 64A and 64B (migration, wound healing 2 μM))?
The cell migration was “reduced”.

What about the “migration of cancer cells” value ([4]; HT1080 fibrosarcoma cells, 10 μM, Transwell 12 hours) of the same compound?
Its value is “strongly inhibited”.

And the live cells (PANC-1 cells)?
The live cells was “almost removed live cells”.

And the “sensitivity to BIA (cell proliferation)” value [5]?
Its value is “high sensitivity”.

And the “G-CEPIAer fluorescence intensity (ER calcium)” value (BI-1 (TMBIM6) [6])?
Its value is “increased”.

And the IC50 (SKBR3)?
Its IC50 is 2.4 ± 0.4 µM.

And the BI-1-GCaMP3 fluorescence intensity (BI-1 (TMBIM6) [7])?
The BI-1-GCaMP3 fluorescence intensity was “decreasing pattern; also recorded: decreased over time”.

What about the “association between RICTOR and mTOR or between RICTOR and RPL19” value [8] of the same compound?
The value was “reduced”.
